Test system: TNFα production
Assay: Measure of TNFα production inhibitory activity (serum TNFα after LPS challenge in mice)
Type: in vivo
Conditions: female BALB/c mice, 7 weeks; test compound intravenous; LPS 100 μg/mouse intraperitoneal; blood 90 minutes after LPS; serum TNFα by ELISA; read-out: ED50 (50% effective dose) for inhibition of serum level of TNFα
Protocol: (i) Measure of TNFα Production Inhibitory Activity
Measure of TNFα production inhibitory activity was prepared according to procedures described previously (Kazuo Ohuchi, SEIBUTSUKAGAKUJIKKENKOZA, 12, 707 (1994) Hirokawa, Tokyo). Female mice (BALB/c, 7 weeks) were injected with test compounds via intravenous administration and with LPS (100 μg/mouse) (Bacto W. E. coli 055:B5; DIFCO Lab.) via in traperitoneal administration. At 90 minutes after LPS challenge, blood with heparin was obtained from abdominal aorta, and serum was stored at −80° C. Serum level of TNFα was determined by mouse cytokine ELISA kit (Genzyme). Inhibition and 50% effective dose (ED50) of test compounds were calculated as 100% of the difference of serum level of TNFα between in control and in LPS. ED50 of some compounds produced by the following examples were 0.01-100 mg/kg.

## CCCCCCCC(=O)N[C@@H](COP(=O)(O)O)c1ccccc1 [example 8]
  ED50: 2.6 mg/kg

From patent US6495533B1, “Drugs containing phosphoric acid derivatives as the active ingredient” (Ono Pharmaceutical Co., Ltd., priority 1999, dated 2002)
